Literature values as cited in paper PMC8146789, “20-Hydroxyecdysone, from Plant Extracts to Clinical Use: Therapeutic Potential for the Treatment of Neuromuscular, Cardio-Metabolic and Respiratory Diseases” (Biomedicines, 2021).
Read-outs that look alike come from different tables or passages of the source.

Tests used:
C2C12 myotubes = test system: C2C12 myotubes; design: method as in PMID 24974955; settings: E2 1 nM; ref [54]; cited from earlier work
[1] = test system: myostatin gene expression in C2C12 cells; settings: cited from earlier work
Erβ = test system: Erβ; design: method as in PMID 24974955; settings: ref [54]; cited from earlier work
ERα = test system: ERα; design: method as in PMID 24974955; settings: ref [54]; cited from earlier work
[2] = sheep, ingested; ref [132]; cited from earlier work
[3] = design: method as in PMID 3355591, PMID 2906596; settings: mice, i.p., ref [123],[125], cited from earlier work
[4] = humans, ref [132], cited from earlier work
rats [5] = test system: rats; design: method as in ref [121] = [121]; 121. Ogawa S. Nishimoto N. Matsuda H. Pharmacology of ecdysones un vertebrates Invertebrate Endocrinology and Hormonal Heterophylly Burdette W.J. Springer Berlin, Germany 1974 341 344; settings: ref [121]; cited from earlier work
rats [6] = settings: long-term feeding 0.2–2 g/kg/day, ref [121]; cited from earlier work
mice = settings: ref Ogawa et al. [121], cited from earlier work
[7] = rat, in vivo, po; cited from earlier work
[8] = design: method as in PMID 5719028, PMID 30428419; settings: ref [154],[155]; cited from earlier work

C[C@]12CC[C@@H]3c4ccc(O)cc4CC[C@H]3[C@@H]1CC[C@@H]2O [E2, Estradiol, reference compound]
myotube diameter (C2C12 myotubes): enhanced myotube diameter | myostatin gene expression ([1]; C2C12 cells, ref [113]): inhibit myostatin gene expression in a dose-dependent manner | activation of ERE reporter gene (Erβ): could be activated dose dependently | activation of ERE reporter gene (ERα): could be activated dose dependently

D-Ala^7-Ang(1-7)
effect on the inhibition of myostatin gene expression by 20E ([1]; C2C12 cells, ref [113]): effective at preventing the inhibition brought about by 20E | effect on the inhibition of myostatin gene expression by Ang(1-7) ([1]; C2C12 cells, ref [113]): abolished

IGF-1: insulin-like growth factor-1
myostatin gene expression ([1]; C2C12 myotubes, 6 h treatment, ref [103]): markedly reduces myostatin gene expression

Angiotensin(1-7): natural ligand for the GPCR Mas1 (DRVYIHP; Angiotensin 1-7; UniProt P01019 25-31, looked up)
myostatin gene expression ([1]; C2C12 cells, ref [113]): partially inhibits myostatin gene expression

C[C@H]([C@H](O)CCC(C)(C)O)[C@H]1CC[C@@]2(O)C3=CC(=O)[C@@H]4C[C@@H](O)[C@@H](O)C[C@]4(C)[C@H]3CC[C@]12C [E, ecdysone]
time of plasma titre maximum [2]: ca. 30 min | time to full excretion of radioactivity ([3]; undiluted radiolabelled ecdysone): ≤ 24 h | time until essentially all radioactivity is located in the intestine [3]: 45 to 60 min | time of plasma titre maximum ([4]; ingested): ca. 30 min | effective half-time of elimination from the blood [4]: 4 h | effective half-time of elimination from the urine [4]: 3.1 h

D-Pro^7-Ang(1-7)
effect on the inhibition of myostatin gene expression by 20E ([1]; C2C12 cells, ref [113]): effective at preventing the inhibition brought about by 20E | effect on the inhibition of myostatin gene expression by Ang(1-7) ([1]; C2C12 cells, ref [113]): abolished

CC(CO)CC[C@@H](O)[C@](C)(O)[C@H]1CC[C@@]2(O)C3=CC(=O)[C@@H]4C[C@@H](O)[C@@H](O)C[C@]4(C)[C@H]3CC[C@]12C (stereo partly shown) [inokosterone]
sex hormonal activity, anti-inflammatory or anabolic effects (rats [5]): did not have | subacute toxicity (rats [6]): no subacute toxicity was observed | LD50 (mice; i.p.-injected): 7.8 g/kg | LD50 (mice; ingested): > 9 g/kg

CC(=O)[C@H]1CC[C@@]2(O)C3=CC(=O)[C@@H]4C[C@@H](O)[C@@H](O)C[C@]4(C)C3CC[C@]12C (stereo partly shown) [Post, poststerone]
bioavailability [7]: ca. 19% | anabolic activity [8]: seem to retain some anabolic activity

C[C@]12C[C@H](O)[C@H](O)C[C@H]1C(=O)C=C1[C@@H]2CC[C@]2(C)C(=O)CC[C@@]12O [rubrosterone]
anabolic activity [8]: seem to retain some anabolic activity

C[C@]12CC[C@@H]3c4ccc(O)cc4C(=NOCC(=O)O)C[C@H]3[C@@H]1CC[C@@H]2O [E2-CMO, estradiol 6-carboxymethyloxime]
myostatin gene expression ([1]; C2C12 cells, ref [113]): inhibit myostatin gene expression in C2C12 cells like E2

C[C@]12CC[C@@H]3c4ccc(O)cc4CC[C@H]3[C@@H]1CC[C@H]2O [17αE2, 17-epi-estradiol]
myostatin gene expression ([1]; C2C12 cells, ref [113]): inhibit myostatin gene expression in C2C12 cells
